Measurements from patent US20240165259A1, “BIOORTHOGONAL REACTION SUITABLE FOR CLICK/UNCLICK APPLICATIONS” (DANA-FARBER CANCER INSTITUTE, INC., priority 2021, published 2024).

Tests used:
[1] = test system: cell surface HaloTag-GFP expressed on HEK293T cells; test: Live cell labeling experiment (confocal microscopy); format: cell-based; settings: 10 μM 21′, then 10 μM 22′ for 1 hour, fixed
Protocol: Live cell labeling by hydroamination was explored. HEK293T cells were transiently transfected with a cell surface HaloTag-GFP construct, treated with 10 μM HaloTag linker-conjugated difluoropropargyl ether 21′, washed, and incubated with 10 μM TAMRA-conjugated hydroxylamine 22′ for 1 hour. The cells were then fixed and visualized by confocal microscopy.
Cell Culture: HEK-293T cells were cultured in Dulbecco's Modified Eagle Medium (DMEM, Corning®) containing 10% fetal bovine serum (FBS, Sigma), 100 units/mL penicillin, and 0.1 mg/mL streptomycin (Sigma) in a humidified chamber at 37° C. with 5% CO2. Cells were passaged and dissociated with 0.25% trypsin, 0.1% EDTA in HBSS (Corning®). Cells tested negative for […] by the MycoAlert PLUS Mycoplasma Detection Kit (Lonza) following the manufacturer's protocol.
Preparation for 12-Well Plate: Coverslips (15 mm circle, thickness 0.13-0.17 mm) were acid-washed according to the Cold Spring Harbor protocol (Fischer et al., Cold Spring Harb. Protoc. 2008:pdb.prot4988 (2008)). A coverslip was added to each well in a 12-well plate followed by an aqueous solution of poly-D-lysine (0.1 mg/mL, 30-70 kDa, 800 μL). The plate was gently shaken to distribute the solution evenly, incubated at room temperature for 1 hour, washed using 1 mL of autoclaved deionized water for each well, and dried overnight. […]

[2] = Stability in PBS with or without glutathione, sodium ascorbate or HEK293T cell lysate (HPLC); format: physicochemical
Protocol: The stability of both the enamine N-oxide and hydroxylamine species under a variety of biologically relevant conditions were verified at various time points (FIG. 5A-FIG. 5B). […] However, approximately 40% of the hydroxylamine had decomposed by the 24 hour time point. The primary degradation products were consistent with hydrolysis of the regioisomeric nitrones that were likely generated by autoxidation. Consequently, this degradation pathway could be abrogated by the addition of cellular reductants such as ascorbic acid (5 mM) or glutathione (5 mM) (Bobko et al., Free Radical Biol. Med. 42(3):404-412 (2007)).
As with the hydroxylamine, the stability of enamine N-oxide 17 was evaluated by HPLC under biologically relevant conditions.
All reactions were monitored by HPLC at 0, 1, 2, 4, 8, and 24 hour time points.
HPLC analysis: Reactions with enamine N-oxide 17 were analyzed by HPLC (Pursuit 200 Å C18, 4.6×150 mm, 10 μm particles, 1 mL/min flow rate, eluent: isocratic 0% MeCN/H2O+0.1% TFA (1 min), gradient 0→100% MeCN/H2O+0.1% TFA (14 minutes), isocratic 100% MeCN/H2O+0.1% TFA (1 minute)) and quantified using its absorbance at 280 nm. Reactions with hydroxylamine 13 were analyzed by HPLC (Pursuit 200 Å C18, 4.6×150 mm, 10 μm particles, 1 mL/min flow rate, eluent: isocratic 0% MeCN/H2O+0.1% TFA (1 minute), gradient 0-20% MeCN/H2O+0.1% TFA (1 minute), gradient 20-50% MeCN/H2O+0.1% TFA (16 minutes), gradient 50→100% MeCN/H2O+0.1% TFA (2 minutes), isocratic 100% MeCN/H2O+0.1% TFA (1 minute)) and quantified using its absorbance at 254 nm.
Stability in PBS: Enamine N-oxide 17 (4 μL, 15 mM in 25% v/v MeOH/PBS, pH 7.4) was added to PBS (116 μL, pH 7.4; 500 μM final concentration). Separately, hydroxylamine 13 (3 μL, 20 mM in deionized H2O) was added to PBS (117 μL, pH 7.4; 500 μM final concentration). Each solution was monitored by HPLC at each time point.
Stability in the presence of glutathione, sodium ascorbate, and cell lysate: The reactions were conducted as described above in the Stability in PBS section except the PBS solution was first supplemented with glutathione (5 mM final concentration), sodium ascorbate (5 mM final concentration), or HEK293T cell lysate (1 mg/mL final concentration) and pH adjusted to 7.4 before adding enamine N-oxide 17 (500 μM final concentration) or hydroxylamine 13 (500 μM final concentration).

## CN(O)CCOCCNC(=O)c1ccc2c(c1)C1(OC2=O)c2ccc(N(C)C)cc2Oc2cc(N(C)C)ccc21 [compound 13, 3′,6′-bis(dimethylamino)-N-(2-(2-(hydroxy(methyl)amino)ethoxy)ethyl)-3-oxo-3H-spiro[isobenzofuran-1,9′-xanthene]-6-carboxamide]
[1]
  live cell labeling (TAMRA signal): localized at the cell surface and co-localized with the GFP signal of transfected cells
[2]; HEK293T cell lysate (1 mg/mL), 24 hours, no exogenous reductants
  degradation in cell lysate: no degradation above background
[2]; PBS with ascorbic acid (5 mM) or glutathione (5 mM), 24 hours
  degradation in the presence of cellular reductants: Negligible degradation
[2]; PBS, room temperature, 24 hour time point
  hydroxylamine decomposed: approximately 40%
[2]; PBS, room temperature, up to 8 hours, HPLC
  compound intact: > 86%
